# How the values were obtained:
# [1] = test system: peripheral blood monocytes; assay: Multiplex (27-plex) cytokine secretion of TLR-ligand stimulated peripheral blood monocytes; type: cell-based, human; conditions: LPS or polyIC, 4 h; ATX-101 4 μM, SB203580 10 μM, LY294002 5 and 10 μM, SC66 1 μg/ml
# Protocol: Measured cytokine levels were normalized to cytokine levels from monocytes stimulated with TLR ligand alone. A two fold or higher increase in cytokine level after TLR stimulation was defined as cytokine induction. […] Isolated monocytes were stimulated with 10 ng/ml LPS and 40 μg/ml polyIC alone and in combination with 4 μM ATX-101 for 4 h. […] DRAQS was used for nuclear staining. Bar, 5 μm.
# Data is from one representative donor out of three; and (B-E) show multiplex analysis of cytokine levels produced by peripheral blood monocytes stimulated with 10 ng/ml LPS (B and D, same donor) and 40 μg/ml polyIC (C and E, same donor) after 4 h. (B and C) Stimulated-monocytes were treated with 4 μM ATX-101, 10 μM SB203580 (p38 MAPK inhibitor), and combination of ATX-101 and SB203580. (D and E) Stimulated-monocytes were treated with 4 μM ATX-101, 5 and 10 μM LY294002 (PI3K class I inhibitor), and combination of ATX-101 and LY294002. Measured cytokine levels were normalized to cytokine levels from monocytes stimulated with TLR ligand alone. A two fold or higher increase in cytokine level after TLR stimulation was defined as cytokine induction. # Value is too low to be visible in the column diagram; ? cytokine measurement was out of range. Data is from representative experiments out of two.
# (§1) Measured cytokine levels were normalized to cytokine levels from monocytes stimulated with TLR ligand alone. A two fold or higher increase in cytokine level after TLR stimulation was defined as cytokine induction. ? Cytokine measurement was out of range. Data is from one experiment out of two.
# Measured cytokine levels were normalized to cytokine levels from monocytes stimulated with TLR ligand alone. Data is from one donor. We obtained similar results for IL-6 secretion in two other donors.
# as §1, with “# Value is too low to be visible in the column diagram; 0” for “?”
# Peripheral blood mononuclear cells were isolated from A+ buffy coats (Blood Bank, St. Olav's University Hospital, Trondheim, Norway) by density gradient centrifugation (Lymphoprep; Axis-Shield PoC, Oslo, Norway). Mononucleated cells were seeded at 4 million cells/ml in serum-free RPMI 1640 supplemented with glutamine and gentamicin. After 60-90 min the adherent cell population was washed before cultured in medium with 10% heat-inactivated human serum (Blood Bank, St. Olav's University Hospital). ATX-101 (4 μM [Innovagen, Lund, Sweden]), ATX-A (4 μM, [Innovagen]) (ATX-A is represented in SEQ ID NO: 1206 and contains the motif RALVK (SEQ ID NO: 1207), which is not capable of interacting with PCNA), p38 inhibitor (SB203580, 10 μM, [Sigma-Aldrich]), PI3K inhibitor (LY294002, 5 and 10 μM, [Sigma-Aldrich]), and Akt inhibitor (Akt inhibitor XVIII SC66, 1 μg/ml, [Sigma-Aldrich]) were added in serum-free medium and incubated for 5 min before LPS (10 ng/ml, [Sigma-Aldrich]), polylC (40 μg/ml, [GE Healthcare, Little Chalfont, UK]), PAM3Cys (10 ng/ml, [Invivogen, San Diego, Calif., USA]) or R848 (10 μg/ml, [Invivogen]) were added in serum-containing medium. The cells were incubated for 4 h before the supernatants were harvested and frozen prior to further cytokine analysis by the 27-plex assay (Bio-Plex ProTM Human cytokine 27-plex assay).
# monocytes = assay: Annexin staining / flow cytometry of monocytes (apoptosis); type: cell-based, human; conditions: 4 hours, monocytes
# Protocol: Annexin staining was used to determine cell viability and cells were counted using flow cytometry.
# Peripheral blood […] were isolated from A+ buffy coats (Blood Bank, St. Olav's University Hospital) by density gradient centrifugation (Lymphoprep; Axis-Shield PoC, Oslo, Norway). The adherent cell fraction after 90 minute incubation, termed monocytes, were washed twice with HANKS and maintained in RPMI 1640 supplemented with 2 mM glutamine, […] gentamicin and 25% heat-inactivated HS over-night. Cells were cultured at 37° C. in a humidified atmosphere of 5% CO2 over-night. […] An R11 peptide and no peptide treatment were used as controls. After 4 hours, the cells were washed once in PBS, and re-suspended in buffer as recommended by the manufacturer of the Annexin V-Pacific Blue kit (Invitrogen). Cells were identified monocytes according to size (FSC) and granularity (SSC).
Compound,"cytokine secretion from stimulated monocytes, single agent [1]",Percentage of annexin positive cells (monocytes; 5μM peptide treatment),Percentage of annexin positive cells (monocytes; 10 μM peptide treatment)
"C[S+]([O-])c1ccc(-c2nc(-c3ccncc3)c(-c3ccc(F)cc3)[nH]2)cc1 (stereo not drawn) [SB203580, reference compound]",reduced cytokine secretion,,
CC[C@H](C)[C@H](NC(=O)[C@H](CCCCN)NC(=O)[C@H](CCCNC(=N)N)NC(=O)[C@H](CCCCN)NC(=O)[C@H](CCCCN)NC(=O)[C@H](CCCCN)NC(=O)[C@H](Cc1c[nH]c2ccccc12)NC(=O)[C@@H]1CCCN1C(=O)[C@@H](NC(=O)[C@H](CC(C)C)NC(=O)[C@H](Cc1c[nH]c2ccccc12)NC(=O)[C@H](CCCNC(=N)N)NC(=O)[C@H](CC(=O)O)NC(=O)[C@@H](N)CCSC)C(C)C)C(=O)N[C@@H](CCCNC(=N)N)C(=O)N[C@@H](CCCNC(=N)N)C(=O)N[C@@H](CCCNC(=N)N)C(=O)N[C@@H](CCCNC(=N)N)C(=O)N[C@@H](CCCNC(=N)N)C(=O)N[C@@H](CCCNC(=N)N)C(=O)N[C@@H](CCCNC(=N)N)C(=O)N[C@@H](CCCNC(=N)N)C(=O)N[C@@H](CCCNC(=N)N)C(=O)N[C@@H](CCCNC(=N)N)C(=O)N[C@@H](CCCNC(=N)N)C(=O)O [ATX-P],,65%,81%
"O=C1/C(=C/c2ccncc2)CCC/C1=C\c1ccncc1 [SC66, reference compound]",reduces cytokine secretion of monocytes to or below the basal levels,,
"N=C(N)NCCC[C@H](NC(=O)[C@H](CCCNC(=N)N)NC(=O)[C@H](CCCNC(=N)N)NC(=O)[C@H](CCCNC(=N)N)NC(=O)[C@H](CCCNC(=N)N)NC(=O)[C@H](CCCNC(=N)N)NC(=O)[C@H](CCCNC(=N)N)NC(=O)[C@H](CCCNC(=N)N)NC(=O)[C@H](CCCNC(=N)N)NC(=O)[C@H](CCCNC(=N)N)NC(=O)[C@@H](N)CCCNC(=N)N)C(=O)O [R11, reference compound]",,55%,56%

# From patent publication US11246907B2, “Immunosuppressive agents and their use in therapy” (Norwegian University of Science and Technology, priority 2013, dated 2022)
